Laboratory results taken from US11111237B2, “Bicyclic compound and use thereof” (SK BIOPHARMACEUTICALS CO., LTD., priority 2019, dated 2021).

Target: PRMT5-MEP50 enzyme complex (Homo sapiens (Human), UniProt O14744)
Test: PRMT5 enzyme activity in vitro assay (methylation of histone H4R3, ELISA absorbance at 450 nm)
Assay type: biochemical
Conditions: SAM, histone H4 peptide, room temperature 2 hours, 8 points from 10 μM to 0.128 nM
Outline: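 Human PRMT5-MEP50 was prepared at 5 μg/mL with SAM at 2 μM and reacted 2 h at room temperature on plate-coated histone H4 (1-20) peptide. An 8-point 1:5 compound series ran from 10 μM to 0.128 nM. H4R3 methylation was detected by antibody/HRP ELISA at 450 nm to give IC50.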

Chain of PRMT5-MEP50 enzyme complex (O14744 2-637): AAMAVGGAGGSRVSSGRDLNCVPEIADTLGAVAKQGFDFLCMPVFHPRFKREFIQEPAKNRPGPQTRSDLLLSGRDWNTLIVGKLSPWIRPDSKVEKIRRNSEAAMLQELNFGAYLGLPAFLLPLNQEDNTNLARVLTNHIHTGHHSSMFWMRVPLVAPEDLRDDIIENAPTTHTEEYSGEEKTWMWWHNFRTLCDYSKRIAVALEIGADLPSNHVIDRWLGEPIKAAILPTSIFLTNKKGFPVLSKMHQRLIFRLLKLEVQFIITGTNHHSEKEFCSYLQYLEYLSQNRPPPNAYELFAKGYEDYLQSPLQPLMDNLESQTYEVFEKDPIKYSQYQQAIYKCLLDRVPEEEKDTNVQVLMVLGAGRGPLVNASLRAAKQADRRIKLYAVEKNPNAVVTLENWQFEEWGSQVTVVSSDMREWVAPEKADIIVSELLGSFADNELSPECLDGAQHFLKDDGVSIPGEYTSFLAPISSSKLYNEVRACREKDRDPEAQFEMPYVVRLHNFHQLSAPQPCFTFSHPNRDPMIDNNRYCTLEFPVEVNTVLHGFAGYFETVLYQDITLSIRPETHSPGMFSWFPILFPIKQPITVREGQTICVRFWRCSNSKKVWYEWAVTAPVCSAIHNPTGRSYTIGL
Chain of PRMT5-MEP50 enzyme complex (Q9BQA1 2-342 partner): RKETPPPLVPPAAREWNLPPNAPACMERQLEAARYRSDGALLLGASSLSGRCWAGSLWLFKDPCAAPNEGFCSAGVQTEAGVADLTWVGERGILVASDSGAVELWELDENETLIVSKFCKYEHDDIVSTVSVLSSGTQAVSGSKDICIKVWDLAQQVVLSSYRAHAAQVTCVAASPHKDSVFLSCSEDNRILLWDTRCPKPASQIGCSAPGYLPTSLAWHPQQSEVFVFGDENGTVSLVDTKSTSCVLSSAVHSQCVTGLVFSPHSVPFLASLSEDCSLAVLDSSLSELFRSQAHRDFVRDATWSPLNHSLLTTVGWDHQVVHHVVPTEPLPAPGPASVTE

Row | SMILES | IC50
1 | C[C@H]1CN(C[C@H](O)CN2CCc3ccccc3C2)C(=O)c2ccc(OC3CN(CCF)C3)cc2O1 [Example 201, (2S)-4-[(2R)-3-(3,4-dihydro-1H-isoquinolin-2-yl)-2-hydroxy-propyl]-8-[1-(2-fluoroethyl)azetidin-3-yl]oxy-2-methyl-2,3-dihydro-1,4-benzoxazepin-5-one] | 0.1 to 1 µM
2 | C[C@H]1CN(C[C@H](O)CN2CCc3ccccc3C2)C(=O)c2ccc(OC3CCN(CCF)CC3)cc2O1 [Example 202, (2S)-4-[(2R)-3-(3,4-dihydro-1H-isoquinolin-2-yl)-2-hydroxy-propyl]-8-[1-(2-fluoroethyl)-4-piperidyl]oxy-2-methyl-2,3-dihydro-1,4-benzoxazepin-5-one] | 0.001 to 0.1 µM
3 | CC1(C)CN(C[C@H](O)CN2CCc3ccccc3C2)C(=O)c2ccc(C(=O)N3C4CCC3COC4)cc2O1 [Example 203, 4-[(2R)-3-(3,4-dihydro-1H-isoquinolin-2-yl)-2-hydroxy-propyl]-2,2-dimethyl-8-(3-oxa-8-azabicyclo[3.2.1]octan-8-carbonyl)-3H-1,4-benzoxazepin-5-one] | 0.1 to 1 µM
4 | CC1(C)CN(C[C@H](O)CN2CCc3ccccc3C2)C(=O)c2ccc(C(=O)N3CC4CC3CO4)cc2O1 (stereo partly drawn) [Example 204, 4-[(2R)-3-(3,4-dihydro-1H-isoquinolin-2-yl)-2-hydroxy-propyl]-2,2-dimethyl-8-(2-oxa-5-azabicyclo[2.2.1]heptan-5-carbonyl)-3H-1,4-benzoxazepin-5-one] | 0.1 to 1 µM
5 | CC1COCC(C)N1C(=O)c1ccc2c(c1)OC(C)(C)CN(C[C@H](O)CN1CCc3ccccc3C1)C2=O (stereo partly drawn) [Example 205, 4-[(2R)-3-(3,4-dihydro-1H-isoquinolin-2-yl)-2-hydroxy-propyl]-8-(3,5-dimethylmorpholin-4-carbonyl)-2,2-dimethyl-3H-1,4-benzoxazepin-5-one] | 0.1 to 1 µM
6 | CN1CCC(Oc2ccc3c(c2)OCCN(C[C@H](O)CN2CCc4ccccc4C2)C3=O)C(F)C1 (stereo partly drawn) [Example 206, 4-[(2R)-3-(3,4-dihydro-1H-isoquinolin-2-yl)-2-hydroxy-propyl]-8-[(3-fluoro-1-methyl-4-piperidyl)oxy]-2,3-dihydro-1,4-benzoxazepin-5-one] | 0.1 to 1 µM
7 | O=C1c2ccc(OC3CCN(CCF)CC3F)cc2OCCN1C[C@H](O)CN1CCc2ccccc2C1 (stereo partly drawn) [Example 207, 4-[(2R)-3-(3,4-dihydro-1H-isoquinolin-2-yl)-2-hydroxy-propyl]-8-[[3-fluoro-1-(2-fluoroethyl)-4-piperidyl]oxy]-2,3-dihydro-1,4-benzoxazepin-5-one] | 0.1 to 1 µM
8 | O=C1c2ccc(OC3CCN(CCO)CC3F)cc2OCCN1C[C@H](O)CN1CCc2ccccc2C1 (stereo partly drawn) [Example 208, 4-[(2R)-3-(3,4-dihydro-1H-isoquinolin-2-yl)-2-hydroxy-propyl]-8-[[3-fluoro-1-(2-hydroxyethyl)-4-piperidyl]oxy]-2,3-dihydro-1,4-benzoxazepin-5-one] | 0.1 to 1 µM
9 | CC1(C)CN(C[C@H](O)CN2CCc3ccccc3C2)C(=O)c2ccc(C(=O)N3CCn4cccc4C3)cc2O1 [Example 209, 4-[(2R)-3-(3,4-dihydro-1H-isoquinolin-2-yl)-2-hydroxy-propyl]-8-(3,4-dihydro-1H-pyrrolo[1,2-a]pyrazine-2-carbonyl)-2,2-dimethyl-3H-1,4-benzoxazepin-5-one] | 0.1 to 1 µM
10 | CC1(C)CN(C[C@H](O)CN2CCc3ccccc3C2)C(=O)c2ccc(C(=O)N3CCN4CCCC4C3)cc2O1 (stereo partly drawn) [Example 210, 8-(3,4,6,7,8,8a-hexahydro-1H-pyrrolo[1,2-a]pyrazine-2-carbonyl)-4-[(2R)-3-(3,4-dihydro-1H-isoquinolin-2-yl)-2-hydroxy-propyl]-2,2-dimethyl-3H-1,4-benzoxazepin-5-one] | 0.1 to 1 µM
11 | O=C1c2ccc(Oc3ncc(F)cn3)cc2OCCN1C[C@H](O)CN1CCc2ccccc2C1 [Example 211, 4-[(2R)-3-(3,4-dihydro-1H-isoquinolin-2-yl)-2-hydroxy-propyl]-8-(5-fluoropyrimidin-2-yl)oxy-2,3-dihydro-1,4-benzoxazepin-5-one] | 0.1 to 1 µM
12 | CC(O)CN1CCC(Oc2ccc3c(c2)OCCN(C[C@H](O)CN2CCc4ccccc4C2)C3=O)CC1 (stereo partly drawn) [Example 212, 4-[(2R)-3-(3,4-dihydro-1H-isoquinolin-2-yl)-2-hydroxy-propyl]-8-[[1-(2-hydroxypropyl)-4-piperidyl]oxy]-2,3-dihydro-1,4-benzoxazepin-5-one] | 0.1 to 1 µM
13 | CN1CCC[C@H](Oc2ccc3c(c2)OCCN(C[C@H](O)CN2CCc4ccccc4C2)C3=O)C1 [Example 213, 4-[(2R)-3-(3,4-dihydro-1H-isoquinolin-2-yl)-2-hydroxy-propyl]-8-[(1-methyl-3-piperidyl)oxy]-2,3-dihydro-1,4-benzoxazepin-5-one] | 0.1 to 1 µM
14 | CCC(=O)c1ccc2c(c1)OCCN(C[C@H](O)CN1CCc3ccccc3C1)C2=O [Example 214, 4-[(2R)-3-(3,4-dihydro-1H-isoquinolin-2-yl)-2-hydroxy-propyl]-8-propanoyl-2,3-dihydro-1,4-benzoxazepin-5-one] | 0.1 to 1 µM
15 | O=C1c2ccc(OC3CC4CCC(C3)N4CCF)cc2OCCN1C[C@H](O)CN1CCc2ccccc2C1 (some centres unmarked) [Example 215] | 0.1 to 1 µM

Other lines, results leading:

Row | IC50 | SMILES
16 | 0.001 to 0.1 µM | O=C(c1ccc2c(c1)OCCN(C[C@H](O)CN1CCc3ccccc3C1)C2=O)C1CC1 [Example 216, 8-(cyclopropanecarbonyl)-4-[(2R)-3-(3,4-dihydro-1H-isoquinolin-2-yl)-2-hydroxy-propyl]-2,3-dihydro-1,4-benzoxazepin-5-one]
17 | 0.1 to 1 µM | O=C(c1ccc2c(c1)OCCN(C[C@H](O)CN1CCc3ccccc3C1)C2=O)C1CCCC1 [Example 217, 8-(cyclopentanecarbonyl)-4-[(2R)-3-(3,4-dihydro-1H-isoquinolin-2-yl)-2-hydroxy-propyl]-2,3-dihydro-1,4-benzoxazepin-5-one]
18 | 0.1 to 1 µM | CN1CCC[C@@H](Oc2ccc3c(c2)OCCN(C[C@H](O)CN2CCc4ccccc4C2)C3=O)C1 [Example 218, 4-[(2R)-3-(3,4-dihydro-1H-isoquinolin-2-yl)-2-hydroxypropyl]-8-[(1-methyl-3-piperidyl)oxy]-2,3-dihydro-1,4-benzoxazepin-5-one]
19 | 0.001 to 0.1 µM | C[C@@H]1CN(C[C@H](O)CN2CCc3ccccc3C2)C(=O)c2ccc(OC3CCN(CCO)CC3)cc2O1 [Example 219, (2R)-4-[(2R)-3-(3,4-dihydro-1H-isoquinolin-2-yl)-2-hydroxy-propyl]-8-[[1-(2-hydroxyethyl)-4-piperidyl]oxy]-2-methyl-2,3-dihydro-1,4-benzoxazepin-5-one]
20 | 0.1 to 1 µM | C[C@@H]1CN(C[C@H](O)CN2CCc3ccccc3C2)C(=O)c2ccc(OC3CCN(CC(C)(C)O)CC3)cc2O1 [Example 220, (2R)-4-[(2R)-3-(3,4-dihydro-1H-isoquinolin-2-yl)-2-hydroxy-propyl]-8-[[1-(2-hydroxy-2-methyl-propyl)-4-piperidyl]oxy]-2-methyl-2,3-dihydro-1,4-benzoxazepin-5-one]
21 | 0.1 to 1 µM | CC(c1ccc2c(c1)OCCN(C[C@H](O)CN1CCc3ccccc3C1)C2=O)N1CCOCC1 (stereo partly drawn) [Example 221, 4-[(2R)-3-(3,4-dihydro-1H-isoquinolin-2-yl)-2-hydroxy-propyl]-8-(1-morpholinoethyl)-2,3-dihydro-1,4-benzoxazepin-5-one]
22 | 0.1 to 1 µM | CC(c1ccc2c(c1)OCCN(C[C@H](O)CN1CCc3ccccc3C1)C2=O)N1CC2(COC2)C1 (stereo partly drawn) [Example 222, 4-[(2R)-3-(3,4-dihydro-1H-isoquinolin-2-yl)-2-hydroxy-propyl]-8-[1-(2-oxa-6-azaspiro[3.3]heptan-6-yl)ethyl]-2,3-dihydro-1,4-benzoxazepin-5-one]
23 | 0.1 to 1 µM | O=C1c2ccc(C#CCO)cc2OCCN1C[C@H](O)CN1CCc2ccccc2C1 [Example 223, 4-[(2R)-3-(3,4-dihydro-1H-isoquinolin-2-yl)-2-hydroxy-propyl]-8-(3-hydroxypro-1-pynyl)-2,3-dihydro-1,4-benzoxazepin-5-one]
24 | 0.1 to 1 µM | COCCN1CCC(Oc2ccc3c(c2)O[C@H](C)CN(C[C@H](O)CN2CCc4ccccc4C2)C3=O)CC1 [Example 224, (2R)-4-[(2R)-3-(3,4-dihydro-1H-isoquinolin-2-yl)-2-hydroxy-propyl]-8-[[1-(2-methoxyethyl)-4-piperidyl]oxy]-2-methyl-2,3-dihydro-1,4-benzoxazepin-5-one]
25 | 0.1 to 1 µM | O=C1c2ccc(-c3ccncc3)cc2OCCN1C[C@H](O)CN1CCc2ccccc2C1 [Example 225, 4-[(2R)-3-(3,4-dihydro-1H-isoquinolin-2-yl)-2-hydroxy-propyl]-8-(4-pyridyl)-2,3-dihydro-1,4-benzoxazepin-5-one]
26 | 0.001 to 0.1 µM | O=C1c2ccc(C#Cc3ccncc3)cc2OCCN1C[C@H](O)CN1CCc2ccccc2C1 [Example 226, 4-[(2R)-3-(3,4-dihydro-1H-isoquinolin-2-yl)-2-hydroxy-propyl]-8-[2-(4-pyridyl)ethynyl]-2,3-dihydro-1,4-benzoxazepin-5-one]
27 | 0.001 to 0.1 µM | O=C1c2ccc(C#Cc3cccnc3)cc2OCCN1C[C@H](O)CN1CCc2ccccc2C1 [Example 227, 4-[(2R)-3-(3,4-dihydro-1H-isoquinolin-2-yl)-2-hydroxy-propyl]-8-[2-(3-pyridyl)ethynyl]-2,3-dihydro-1,4-benzoxazepin-5-one]
28 | 0.001 to 0.1 µM | CC(O)C#Cc1ccc2c(c1)OCCN(C[C@H](O)CN1CCc3ccccc3C1)C2=O (stereo partly drawn) [Example 228, 4-[(2R)-3-(3,4-dihydro-1H-isoquinolin-2-yl)-2-hydroxy-propyl]-8-(3-hydroxybu-1-tynyl)-2,3-dihydro-1,4-benzoxazepin-5-one]
29 | 0.1 to 1 µM | CNCC#Cc1ccc2c(c1)OCCN(C[C@H](O)CN1CCc3ccccc3C1)C2=O [Example 229, 4-[(2R)-3-(3,4-dihydro-1H-isoquinolin-2-yl)-2-hydroxy-propyl]-8-[3-(methylamino)pro-1-pynyl]-2,3-dihydro-1,4-benzoxazepin-5-one]
